{
  "source": "patent US20260199282A1",
  "about": "“METHODS AND COMPOSITIONS FOR IMPROVING DRIVING PERFORMANCE” (priority 2022, published 2026)",
  "key": {"[1]": {"test_system": "subjects with EDS due to OSA", "experiment": "Standardized on-road highway driving test, OSA study", "format": "in vivo, human", "description": "This was a randomized, double-blind, placebo-controlled, crossover, on-road driving study in subjects with EDS due to OSA. A total of 40 adult subjects were planned for enrollment, and 34 subjects were randomized. Subjects received either solriamfetol (150 mg QD for 3 days, followed by 300 mg QD for 4 days) or matching placebo for 7 days, and then crossed over to receive the other treatment regimen for 7 days (FIG. 4). […] The PVT was administered predose and prior to each driving test. Actigraphy and a sleep diary were used to assess daily sleep patterns. The Toronto Hospital Alertness Test (THAT) was administered at baseline and at the end of each treatment period. A Follow-up Visit was performed approximately 7 days after the final dose of study drug. Subjects were recruited at clinical sites. Eligibility was determined through screening procedures (including a Maintenance of Wakefulness Test [MWT]) at the clinical sites after the washout of prohibited medications, and a practice driving test at the driving test site. A total of 40 adult subjects were planned for enrollment; 34 subjects were randomized and analyzed for safety and efficacy.\nAssessments to determine driving performance included: standard deviation of lateral position (SDLP; Verster and Roth 2011; Raemakers 2017), standard deviation of speed (SDS), and number of driving lapses (also known as lane drift, defined as deviations>100 cm from the mean lateral position and from the absolute lateral position for 8 seconds; Vinckenbosch 2020). Driving performance was assessed using a standardized on-road driving test on Day 7 (Visit 4) and on Day 14 (Visit 5). A practice driving test was performed during the screening period to familiarize the subject with the vehicle and test scenario, assess if the subject could adequately operate the manual transmission vehicle, and determine if any safety concerns existed that excluded the subject from participating in the study.\nDuring each drive, subjects operated a specially instrumented vehicle for approximately 1 hour over a 100 km (61 mile) primary highway circuit. During each driving test, each subject was accompanied by a licensed driving instructor who had access to dual controls (i.e., brakes, clutch, and accelerator). The subject or instructor could stop the test if either considered it unsafe to continue. The subject was instructed to drive with a steady lateral position between the delineated boundaries of the slower (right) traffic lane, while maintaining a constant speed of\n95 km/h (58 mph). Subjects could deviate from these instructions only to pass a slower vehicle, to respond to a slower speed in traffic ahead of him/her and to leave and re-enter the highway at the turnaround point. During the drive, the vehicle's speed and lateral distance to the left lane line were continuously recorded and captured on an onboard computer disk file. Subjects were transported to and from the driving circuit on each test day.\nThe primary analysis was based on the mITT population. The primary outcome measure of mean change in SDLP was analyzed using a repeated mixed effect analysis of variance (ANOVA) model. The model included treatment (solriamfetol and placebo), driving performance test (2 hours postdose and 6 hours postdose), treatment period, treatment sequence, and treatment by driving performance test interaction as fixed effects and subject as a random effect. The 2-sided 95% confidence intervals of solriamfetol-placebo changes for SDLP based on the repeated mixed effect ANOVA model was constructed for each driving performance test.\nIndividual changes (solriamfetol minus placebo) in driving performance were measured by SDLP at 2 hours and 6 hours postdose. The Maximum McNemar symmetry analyses (Laska et al. 2012) were used to detect an asymmetry in the distribution of the change in driving performance at 2 hours and 6 hours post-dose. […]"}, "[2]": {"test_system": "participants with narcolepsy", "conditions": "12 weeks; 75 to 300 mg/day; cited from earlier work"}, "[3]": {"test_system": "participants with narcolepsy", "experiment": "Actual task effectiveness from PVT inverse reaction time, narcolepsy", "format": "in vivo, human", "conditions": "narcolepsy n=20", "description": "(§1) Actual task effectiveness scores were calculated based on each participant's inverse reaction time (IRT [1/RT]) as described below. Sleep intervals derived from participants' actigraphy data—or from sleep diaries, if available, where actigraphy data were missing—were used to calculate modeled healthy control task effectiveness scores using the SAFTE. Participants evidenced good sleep hygiene, with minimal missing data. Task effectiveness was not modeled for participants missing data from the night before PVT testing. A SAFTE model effectiveness score of 100 indicates typical best performance during the day, based on a normal healthy population. SAFTE-FAST effectiveness predictions have been validated against IRT on the PVT [22].\n(§2) Actual effectiveness scores were calculated as a percentage of a theoretical “best performance” from participants' average IRT per PVT trial (for all PVT test sessions, actual effectiveness=IRT/3.96×100). Average speed (IRT) on a PVT under optimal conditions—healthy sleepers taking the test at 11:00 in the morning, following an 8-hour sleep opportunity—is approximately 3.96 [40], and is assumed to represent an actual effectiveness score of 100 (a healthy participant's typical best performance). Repeated-measures analysis of variance (ANOVA) was used to estimate the effect of treatment on actual effectiveness over time."}, "participants with OSA": {"test_system": "participants with OSA", "experiment": "Actual task effectiveness from PVT inverse reaction time, OSA", "format": "in vivo, human", "conditions": "OSA n=31", "description": "as §1, §2"}, "[4]": {"conditions": "cited from earlier work"}, "[5]": {"conditions": "2 hours postdose, mITT, primary analysis, listed as JZP-110"}, "[6]": {"conditions": "2 hours postdose, sequence JZP-110/Placebo, mITT"}, "[7]": {"conditions": "2 hours postdose, sequence Placebo/JZP-110, mITT"}, "[8]": {"conditions": "6 hours postdose, sequence JZP-110/Placebo, mITT"}, "[9]": {"conditions": "6 hours postdose, sequence Placebo/JZP-110, mITT"}},
  "note": "Where two headings read alike, the source gives them in different places.",
  "data": [
    {"smiles": "NC(=O)OC[C@H](N)Cc1ccccc1", "note": "[Solriamfetol, (R)-2-amino-3-phenylpropyl carbamate]", "values": [
      {"measurement": "Maximum McNemar test, distribution of change in driving performance", "setting": "[1]; 2 hours and 6 hours post-dose, mITT", "result": "did not show asymmetry"},
      {"measurement": "driving lapses, LS mean difference solriamfetol vs placebo", "setting": "[1]; 2 hours postdose", "result": "−1.128", "unit": "lapses"},
      {"measurement": "standard deviation of speed (SDS), LS mean difference", "setting": "[1]; 2 hours postdose", "result": 0.068, "unit": "km/h"},
      {"measurement": "SDLP, mean (SD), observed", "setting": "[1]; 2 hours postdose, day 7, 300 mg/day, mITT", "result": "18.83 (3.690) cm"},
      {"measurement": "SDLP, mean (SD) difference (JZP-110 − Placebo)", "setting": "[1]; 2 hours postdose, mITT", "result": "−1.11 (2.520) cm"},
      {"measurement": "SDLP, median difference (JZP-110 − Placebo)", "setting": "[1]; 2 hours postdose, mITT", "result": "−0.78", "unit": "cm"},
      {"measurement": "SDLP, median, observed", "setting": "[1]; 2 hours postdose, mITT", "result": 18.39, "unit": "cm"},
      {"measurement": "SDLP, LS mean (SE)", "setting": "[1]; 2 hours postdose, mITT, primary analysis", "result": 18.83, "unit": "cm"},
      {"measurement": "SDLP, LS mean (SE)", "setting": "[1]; [5]", "result": "18.83 (0.627) cm"},
      {"measurement": "SDLP, LS mean difference (JZP-110 − Placebo)", "setting": "[1]; [5]", "result": "−1.084", "unit": "cm"},
      {"measurement": "SDLP, mean (SD)", "setting": "[1]; [6]", "result": "18.58 (3.831) cm"},
      {"measurement": "SDLP, mean difference JZP-110 vs placebo", "setting": "[1]; [6]", "result": "−0.26", "unit": "cm"},
      {"measurement": "SDLP, median", "setting": "[1]; [6]", "result": 17.98, "unit": "cm"},
      {"measurement": "SDLP, median difference JZP-110 vs placebo", "setting": "[1]; [6]", "result": "−0.18", "unit": "cm"},
      {"measurement": "SDLP, mean difference JZP-110 vs placebo", "setting": "[1]; [7]", "result": "−1.91", "unit": "cm"},
      {"measurement": "SDLP, median", "setting": "[1]; [7]", "result": 20.00, "unit": "cm"},
      {"measurement": "SDLP, median difference JZP-110 vs placebo", "setting": "[1]; [7]", "result": "−2.46", "unit": "cm"},
      {"measurement": "SDLP, mean (SD)", "setting": "[1]; 2 hours postdose, sequence Placebo/JZP-110, mITT, listed as JZP-110", "result": "19.08 (3.643) cm"},
      {"measurement": "SDLP, mean (SD)", "setting": "[1]; 2 hours postdose, sequence Placebo/JZP-110, mITT, listed as solriamfetol", "result": 19.08, "unit": "cm"},
      {"measurement": "driving lapses, LS mean difference solriamfetol vs placebo", "setting": "[1]; 6 hours postdose", "result": 0.050, "unit": "lapses"},
      {"measurement": "standard deviation of speed (SDS), LS mean difference", "setting": "[1]; 6 hours postdose", "result": "−0.109", "unit": "km/h"},
      {"measurement": "SDLP, LS mean difference, sensitivity analysis", "setting": "[1]; 6 hours postdose, PP population", "result": "−1.037", "unit": "cm"},
      {"measurement": "SDLP, LS mean (SE)", "setting": "[1]; 6 hours postdose, mITT", "result": "19.24 (0.631) cm"},
      {"measurement": "SDLP, LS mean difference (JZP-110 − Placebo)", "setting": "[1]; 6 hours postdose, mITT", "result": "−0.804", "unit": "cm"},
      {"measurement": "SDLP, mean (SD)", "setting": "[1]; [8]", "result": "19.23 (3.224) cm"},
      {"measurement": "SDLP, mean difference JZP-110 vs placebo", "setting": "[1]; [8]", "result": 0.20, "unit": "cm"},
      {"measurement": "SDLP, median", "setting": "[1]; [8]", "result": 18.92, "unit": "cm"},
      {"measurement": "SDLP, median difference JZP-110 vs placebo", "setting": "[1]; [8]", "result": 0.43, "unit": "cm"},
      {"measurement": "SDLP, mean difference JZP-110 vs placebo", "setting": "[1]; [9]", "result": "−1.91", "unit": "cm"},
      {"measurement": "SDLP, median", "setting": "[1]; [9]", "result": 19.24, "unit": "cm"},
      {"measurement": "SDLP, median difference JZP-110 vs placebo", "setting": "[1]; [9]", "result": "−1.33", "unit": "cm"},
      {"measurement": "SDLP, mean (SD)", "setting": "[1]; 6 hours postdose, sequence Placebo/JZP-110, mITT, listed as JZP-110", "result": "19.23 (3.593) cm"},
      {"measurement": "SDLP, mean (SD)", "setting": "[1]; 6 hours postdose, sequence Placebo/JZP-110, mITT, listed as solriamfetol", "result": 19.23, "unit": "cm"},
      {"measurement": "SDLP, difference in median values between the 2 treatments (solriamfetol-placebo)", "setting": "[1]; placebo as initial treatment, both time points (2 and 6 hours postdose)", "result": "−1.91", "unit": "cm"},
      {"measurement": "subjects who failed to complete the driving test", "setting": "[1]; solriamfetol condition", "result": 3, "unit": "subjects"},
      {"measurement": "single McNemar test: proportion improved drivers versus impaired", "setting": "[1]; threshold of 1.0 cm, 2 h post dose", "result": 29.4, "unit": "%"},
      {"measurement": "Epworth Sleepiness Scale, treatment difference from placebo (least squares mean)", "setting": "[2]", "result": "−2.2 to −4.7", "unit": "points"},
      {"measurement": "Actual task effectiveness, LS mean (SE)", "setting": "[3]; 2 hours post-dose", "result": "96.07 (1.65)"},
      {"measurement": "Actual task effectiveness, LS mean difference", "setting": "[3]; 2 hours post-dose", "result": 10.41},
      {"measurement": "Actual task effectiveness, LS mean (SE)", "setting": "[3]; 6 hours post-dose", "result": "93.89 (1.65)"},
      {"measurement": "Actual task effectiveness, LS mean difference", "setting": "[3]; 6 hours post-dose", "result": 7.60},
      {"measurement": "Actual task effectiveness, LS mean (SE)", "setting": "[3]; pre-dose", "result": "86.06 (1.65)"},
      {"measurement": "Actual task effectiveness, LS mean difference", "setting": "[3]; pre-dose", "result": "−6.16"},
      {"measurement": "Actual task effectiveness, LS mean (SE)", "setting": "participants with OSA; 2 hours post-dose", "result": "91.88 (1.12)"},
      {"measurement": "Actual task effectiveness, LS mean difference", "setting": "participants with OSA; 2 hours post-dose", "result": "−2.35"},
      {"measurement": "Actual task effectiveness, LS mean (SE)", "setting": "participants with OSA; 6 hours post-dose", "result": "93.72 (1.12)"},
      {"measurement": "Actual task effectiveness, LS mean difference", "setting": "participants with OSA; 6 hours post-dose", "result": "−1.35"},
      {"measurement": "Actual task effectiveness, LS mean (SE)", "setting": "participants with OSA; pre-dose", "result": "89.19 (1.12)"},
      {"measurement": "Actual task effectiveness, LS mean difference", "setting": "participants with OSA; pre-dose", "result": "−4.45"},
      {"measurement": "mean half-life", "setting": "[4]; fasting conditions", "result": 5.9, "unit": "h"},
      {"measurement": "median time to peak plasma concentration", "setting": "[4]; fasting conditions", "result": 2, "unit": "h"},
      {"measurement": "mean half-life", "setting": "[4]; fed conditions", "result": 6.1, "unit": "h"},
      {"measurement": "median time to peak plasma concentration", "setting": "[4]; fed conditions", "result": 3, "unit": "h"}
    ]}
  ]
}
